Structures can show the parent of a compound that is named as a salt.
Experiments:
[1] = Cytotoxicity assay CellTitre-Blue, HUT-R5; type: cell-based; conditions: human, HUT-R5 cells, read-out: Cytotoxicity CC50 HUTR5
Method: (§1) Cytotoxicity assays. Cytotoxicity assays were performed using the CellTitre-Blue Cell Viability Assay kit (Promega, USA) as per manufacturer's recommendations. HEK-293T and HUT-R5 cell lines were maintained in the presence of serial dilutions of the compounds for 4 days and treated with CellTitre-Blue reagent for 4 h at 37° C. The fluorescent signals were recorded at 530/25excision and 590/35emission using BioTek microplate reader. The 50% cytotoxicity concentrations (CC50s) were determined as the compound concentrations that reduced the fluorescent signals to 50% relative to DMSO only controls.

HIV-1 clade C K3016 = experiment: Viral infectivity assay in TZM-bl cells (luciferase), K3016; type: cell-based; conditions: DMSO = 100
Text: Plasmids, tissue culture and transfections. HIV-1 clade B molecular clone NL4-3 and cade C clones K3016, ZM247 were obtained from Dr. Christina Ochsenbauer, University of Alabama, USA. Both K3016 and ZM247 were constructed using viral strains from South Africa. The HIV-1 clade C molecular clone pindieC1 was obtained from Dr. Uday Ranga, JNCASR, India. This clone was constructed using an HIV strain from India. HEK-293T and TZM-bl cells were propagated in Dulbecco's modified Eagle's medium (DM4EM) containing 10% fetal bovine serum (FBS). HUT-R5 cells were propagated in RPM 1640 medium supplemented with 10% FBS. For transfections, HEK-293T cells were grown in six well plates to about 80% confluency. Cells were transfected using Lipofectamine 2000 (invitrogen, USA) following manufacturer's recommendations. For viral replication assays, HUT-R5 T-cells were transfected using DEAE dextran as described in Waheed, A. A., Ono, A., and Freed, E. O.; Methods for the study of HIV-1 assembly; Methods Mol. Biol. Clifton N.J. 485, 163-184 (2009).
Preparation of viral stocks. Virus stocks were prepared by transfecting HEK-293T cells with HIV-1 DNAs (3 μg). 24 h post-transfection, the culture medium was replaced with fresh DMEM and incubated for another 2 h. Compounds tested were maintained in the culture throughout transfection. The culture supernatant was centrifuged at 845×g for 3 min to remove cellular debris. The clarified supernatants were filtered (pore size 0.45 µm filter disc) to remove residual cellular contaminants. For determination of viral infectivity, the un-concentrated virus was used to infect TZM-bl cells. For the CA-SP1 accumulation assay, the virus was pelleted by ultra-centrifugation at 210,100×g for 1 h at 4° C. using SW41Ti rotor (Beckman Coulter, USA).
Viral infectivity assays. The virus stocks were normalized for p24 antigen using an HIV-1 p24 Antigen Capture kit (ABL, USA). Equal amounts of virus were used to infect TZM-bl cells (5×10^4/well) in the presence of 20 μg DEAE-dextran per mL in 24 well plate. Single-round infectivity assays were performed as previously described in Checkley, M. A. et al; Reevaluation of the Requirement for TIP47 in Human Immunodeficiency Virus Type 1 Envelope Glycoprotein Incorporation; J. Virol. 87, 3561-3570 (2013). The luciferase activity in the cell lysates was measured using the Steady-Glo luciferase assay kit (Promega, USA) following manufacturer's recommendations.

[2] = Cytotoxicity assay CellTitre-Blue, HEK-293T; type: cell-based; conditions: human, HEK-293T cells, read-out: Cytotoxicity CC50 HEK293T
Method: as §1

[3] = system: pNL4-3 SP1-V7A in MT-4 cells; experiment: Antiviral assay in MT-4 cells (RT readout), SP1-V7A; type: cell-based, HIV-1; conditions: Human immunodeficiency virus 1, MT4, 96 h, read-out: Antiviral Assay IC50 (nM) SP1 V7A
Method: (§2) Cell culture, plasmids and transfections. The MT-4 T-cell line was maintained in RPMI-1640 medium supplemented with 10% (vol/vol) fetal bovine serum (FBS), 2 mM glutamine, 100 U/mL penicillin and 100 μg/mL streptomycin at 37° C. in a humidified 5% CO2 atmosphere. HeLa and 293T cells were maintained in Dulbecco's modified Eagle's medium (DMEM) supplemented with 5% (vol/vol) FBS, 2 mM glutamine, 100 U/mL penicillin and 100 μg/mL streptomycin. Molecular clones used in this study were WT pNL4-3 and the derivative encoding a Val-to-Ala mutation at SP1 residue 7, referred to as SP1-V7A. The MT-4 T-cell line was transfected the DEAE/dextran procedure; HeLa and 293T cells were transfected with linear polyethylenimine (L-PEI) or Lipofectamine 2000 (Invitrogen) as recommended by the supplier.
(§3) Antiviral assays. To produce HIV-1 stocks, 293T cells were transfected with WT pNL4-3 or the SP1-V7A derivative and culture supernatants were collected 24 h post transfection. RT-normalized virus supernatants were used to infect MT-4 cells at room temperature for 30 min. Cells were then cultured in the presence of serial dilutions of compounds. […] The IC50s in primary peripheral blood mononuclear cells (PBMCs) were calculated with a multi-clade panel of HIV-1 isolates by Southern Research Institute (Frederick, Md.). […]

[4] = Cytotoxicity assay CellTiter-Blue, MT-4; type: cell-based; conditions: human; MT-4 cells, 4 to 8 days; mean ± SEM, three experiments
Method: (§4) Cytotoxicity assays. Cytotoxicity was measured with CellTiter-Blue® Cell Viability Assay according to the manufacturer's protocol (Promega). Two cell lines, MT-4 and HeLa, were used in this assay. Cells were incubated with serial dilution of compounds at 37° C. for 4 to 8 days and subjected to CellTiter-Blue Reagent. The fluorescent signal was measured at 560 nm Ex/590 nm Em by a plate reader (TECAN, Infinite® M1000 PRO). The 50% cytotoxic concentrations (CC50s) were defined as compound concentrations at which the fluorescent signals were reduced by 50%/relative to the no-inhibitor (DMSO only) controls using GraphPad Prism 6 software and are reported in Table 1.

WT pNL4-3 in MT-4 cells = experiment: Antiviral assay in MT-4 cells (RT readout), WT NL4-3; type: cell-based, HIV-1; conditions: Human immunodeficiency virus 1, NL43, MT4, 96 h, read-out: Antiviral Assay IC50 (nM) NL4-3
Method: as §2, §3

[5] = Cytotoxicity assay CellTiter-Blue, HeLa; type: cell-based; conditions: human; HeLa cells, 4 to 8 days; mean ± SEM, three experiments
Method: as §4

C=C(C)[C@@H]1CC[C@]2(CCNCCN3CCS(=O)(=O)CC3)CC[C@]3(C)[C@H](CC[C@@H]4[C@@]5(C)CC[C@H](OC(=O)CC(C)(C)C(=O)O)C(C)(C)[C@@H]5CC[C@]43C)[C@@H]12 [Compound 51ee, (3β)-17-[[[2-[2-(1,1-Dioxothiomorpholin-4-yl)]Ethyl]Amino]Ethyl]-28-norlup-20(29)-en-3-ol, 3-(1-Hydrogen 2,2-Dimethylbutanedioate)]
CC50 at 4 days [1]: > 500 nM | % Relative Infectivity K3016 10 nM (HIV-1 clade C K3016): 32.0% | % Relative Infectivity K3016 100 nM (HIV-1 clade C K3016): 7.8% | CC50 at 4 days [2]: > 100 nM

C=C(C)[C@@H]1CC[C@]2(CCNCCN3CCN(S(C)(=O)=O)CC3)CC[C@]3(C)[C@H](CC[C@@H]4[C@@]5(C)CC[C@H](OC(=O)CC(C)(C)C(=O)O)C(C)(C)[C@@H]5CC[C@]43C)[C@@H]12 [Compound 51ff, (3β)-17-[2-[[2-[4-(Methylsulfonyl)piperazin-1-yl]ethyl]amino]ethyl]-28-norlup-20(29)-en-3-ol, 3-(1-Hydrogen 2,2-Dimethylbutanedioate)]
CC50 at 4 days [1]: > 500 nM | % Relative Infectivity K3016 10 nM (HIV-1 clade C K3016): 43.3% | % Relative Infectivity K3016 100 nM (HIV-1 clade C K3016): 24.4% | CC50 at 4 days [2]: > 100 nM

C=C(C)[C@@H]1CC[C@]2(CCNC3CCN(CCO)CC3)CC[C@]3(C)[C@H](CC[C@@H]4[C@@]5(C)CC[C@H](OC(=O)CC(C)(C)CC(=O)O)C(C)(C)[C@@H]5CC[C@]43C)[C@@H]12 [Compound 51f, (3β)-17-[2-[[1-(2-Hydroxyethyl)piperidin-4-yl]amino]ethyl]-28-norlup-20(29)-en-3-ol, 3-(Hydrogen 3,3-Dimethylpentanedioate), Bis(trifluoroacetate) Salt]
IC50 [3]: 8 ± 2 nM | CC50 [4]: 366 ± 44 nM | IC50 (WT pNL4-3 in MT-4 cells): 21 ± 19 nM | CC50 [5]: > 1000 nM

C=C(C)[C@@H]1CC[C@]2(CCNCCN3CCN(Cc4ccccc4)CC3)CC[C@]3(C)[C@H](CC[C@@H]4[C@@]5(C)CC[C@H](OC(=O)CC(C)(C)C(=O)O)C(C)(C)[C@@H]5CC[C@]43C)[C@@H]12 [Compound 51hh, (3β)-17-[2-[[2-[4-(Phenylmethyl)piperazin-1-yl]ethyl]amino]ethyl]-28-norlup-20(29)-en-3-ol, 3-(1-Hydrogen 2,2-Dimethylbutanedioate)]
CC50 at 4 days [1]: > 500 nM | % Relative Infectivity K3016 10 nM (HIV-1 clade C K3016): 48.6% | % Relative Infectivity K3016 100 nM (HIV-1 clade C K3016): 32.3% | CC50 at 4 days [2]: > 100 nM
